Results from ChEMBL document CHEMBL6078624, “Structure-based discovery of a 4,5-Dihydropyrazole-cored PET ligand for imaging of receptor-interacting serine/threonine-protein kinase 1 (RIPK1) in the brain” (Eur J Med Chem, 2024).

What was measured:
[1] = Stability of compound in saline at 37 degreeC incubated for 6 hrs by HPLC analysis; format: physicochemical; conditions: buffer
[2] = Drug uptake in male rat white matter region at 5 microCi/ml incubated for 30 mins by phosphor imager analysis; format: ADME, tissue-based, Brain white matter; conditions: 0.5 h
[3] = Drug uptake in male mouse cerebellum at 5 microCi/ml incubated for 30 mins by phosphor imager analysis; format: ADME, tissue-based; conditions: 0.5 h
[4] = Drug uptake in male mouse midbrain at 5 microCi/ml incubated for 30 mins by phosphor imager analysis; format: ADME, tissue-based; conditions: 0.5 h
[5] = Drug uptake in male mouse thalamus at 5 microCi/ml incubated for 30 mins by phosphor imager analysis; format: ADME, tissue-based; conditions: 0.5 h
[6] = Drug uptake in male Sprague-Dawley rat brain at 12.6 to 18.6 MBq, iv administered into tail vein measured at 1.5 mins post-injection by PET/CT imaging analysis; format: ADME, organism-based; conditions: in vivo, 0.025 h, dose 12.6-18.6 MBq
[7] = Drug uptake in male Sprague-Dawley rat cerebellum at 12.6 to 18.6 MBq, iv administered into tail vein by PET/CT imaging analysis; format: ADME, organism-based; conditions: in vivo, dose 12.6-18.6 MBq
[8] = Drug uptake in male Sprague-Dawley rat cortex at 12.6 to 18.6 MBq, iv administered into tail vein by PET/CT imaging analysis; format: ADME, organism-based; conditions: in vivo, dose 12.6-18.6 MBq
[9] = Drug uptake in male Sprague-Dawley rat brain at 12.6 to 18.6 MBq, iv administered into tail vein measured after rapid washout by PET/CT imaging analysis; format: ADME, organism-based; conditions: in vivo, dose 12.6-18.6 MBq
[10] = Biodistribution in male ICR mouse brain at 0.74 MBq, iv administered into tail vein measured at 2 mins post-injection by automatic gamma counter analysis; format: ADME, organism-based; conditions: in vivo
[11] = Biodistribution in male ICR mouse brain at 0.74 MBq, iv administered into tail vein measured at 10 mins post-injection by automatic gamma counter analysis; format: ADME, organism-based; conditions: in vivo
[12] = Biodistribution in male ICR mouse brain at 0.74 MBq, iv administered into tail vein measured at 60 mins post-injection by automatic gamma counter analysis; format: ADME, organism-based; conditions: in vivo, 1 h
[13] = Biodistribution in male ICR mouse blood at 0.74 MBq, iv administered into tail vein measured at 10 mins post-injection by automatic gamma counter analysis; format: ADME, organism-based; conditions: in vivo
[14] = Biodistribution in male ICR mouse blood at 0.74 MBq, iv administered into tail vein measured at 60 mins post-injection by automatic gamma counter analysis; format: ADME, organism-based; conditions: in vivo, 1 h
[15] = Biodistribution in male ICR mouse bone at 0.74 MBq, iv administered into tail vein measured at 30 mins post-injection by automatic gamma counter analysis; format: ADME, organism-based, Bone element; conditions: in vivo, 0.5 h
[16] = Biodistribution in male ICR mouse bone at 0.74 MBq, iv administered into tail vein measured at 60 mins post-injection by automatic gamma counter analysis; format: ADME, organism-based, Bone element; conditions: in vivo, 1 h
[17] = Biodistribution in male ICR mouse heart at 0.74 MBq, iv administered into tail vein by automatic gamma counter analysis; format: ADME, organism-based; conditions: in vivo
[18] = Biodistribution in male ICR mouse liver at 0.74 MBq, iv administered into tail vein by automatic gamma counter analysis; format: ADME, organism-based; conditions: in vivo
[19] = Biodistribution in male ICR mouse lungs at 0.74 MBq, iv administered into tail vein by automatic gamma counter analysis; format: ADME, organism-based, Lung; conditions: in vivo
[20] = Biodistribution in male ICR mouse kidneys at 0.74 MBq, iv administered into tail vein by automatic gamma counter analysis; format: ADME, organism-based, Kidney; conditions: in vivo
[21] = Biodistribution in male ICR mouse pancreas at 0.74 MBq, iv administered into tail vein by automatic gamma counter analysis; format: ADME, organism-based; conditions: in vivo
[22] = Biodistribution in male ICR mouse small intestine at 0.74 MBq, iv administered into tail vein measured at 60 mins post-injection by automatic gamma counter analysis; format: ADME, organism-based; conditions: in vivo, 1 h
[23] = Biodistribution in male ICR mouse brain at 0.74 MBq, iv administered into tail vein measured at 30 mins post-injection by automatic gamma counter analysis; format: ADME, organism-based; conditions: in vivo, 0.5 h
[24] = Biodistribution in male ICR mouse blood at 0.74 MBq, iv administered into tail vein measured at 30 mins post-injection by automatic gamma counter analysis; format: ADME, organism-based; conditions: in vivo, 0.5 h
[25] = Biodistribution in male ICR mouse blood at 0.74 MBq, iv administered into tail vein measured at 2 mins post-injection by automatic gamma counter analysis; format: ADME, organism-based; conditions: in vivo
[26] = Biodistribution in male ICR mouse bone at 0.74 MBq, iv administered into tail vein measured at 10 mins post-injection by automatic gamma counter analysis; format: ADME, organism-based, Bone element; conditions: in vivo
[27] = Biodistribution in male ICR mouse bone at 0.74 MBq, iv administered into tail vein measured at 2 mins post-injection by automatic gamma counter analysis; format: ADME, organism-based, Bone element; conditions: in vivo
[28] = Biodistribution in male ICR mouse heart at 0.74 MBq, iv administered into tail vein measured at 60 mins post-injection by automatic gamma counter analysis; format: ADME, organism-based; conditions: in vivo, 1 h
[29] = Biodistribution in male ICR mouse liver at 0.74 MBq, iv administered into tail vein measured at 60 mins post-injection by automatic gamma counter analysis; format: ADME, organism-based; conditions: in vivo, 1 h
[30] = Biodistribution in male ICR mouse lungs at 0.74 MBq, iv administered into tail vein measured at 60 mins post-injection by automatic gamma counter analysis; format: ADME, organism-based, Lung; conditions: in vivo, 1 h
[31] = Biodistribution in male ICR mouse kidneys at 0.74 MBq, iv administered into tail vein measured at 60 mins post-injection by automatic gamma counter analysis; format: ADME, organism-based, Kidney; conditions: in vivo, 1 h
[32] = Biodistribution in male ICR mouse pancreas at 0.74 MBq, iv administered into tail vein measured at 60 mins post-injection by automatic gamma counter analysis; format: ADME, organism-based; conditions: in vivo, 1 h
[33] = Biodistribution in male ICR mouse brain at 0.74 MBq, iv administered into tail vein pre-treated with GSK'547 by automatic gamma counter analysis; format: ADME, organism-based; conditions: in vivo

Question: Which results are given for `Cc1ccc(C2CC=NN2C(=O)C2CCN(C(=O)c3cccc([18F])n3)CC2)cc1F` (stereo not drawn)?
Answer: Stability [1]: Stable; Drug uptake [2]: Active; Drug uptake [3]: Active; Drug uptake [4]: Active; Drug uptake [5]: Active; SUVmax [6]: 0.81; SUV [7]: Active; SUV [8]: Active; SUV [9]: 0.12; Drug uptake [10]: 4.8 % ID/g; Drug uptake [11]: 1.34 % ID/g; Drug uptake [12]: 0.14 % ID/g; Drug uptake [13]: 5.32 % ID/g; Drug uptake [14]: 0.97 % ID/g; Drug uptake [15]: 7.94 % ID/g; Drug uptake [16]: 6.69 % ID/g; Drug uptake [17]: > 6.5 % ID/g; Drug uptake [18]: > 6.5 % ID/g; Drug uptake [19]: > 6.5 % ID/g; Drug uptake [20]: > 6.5 % ID/g; Drug uptake [21]: > 6.5 % ID/g; Drug uptake [22]: 20.75 % ID/g; Drug uptake [23]: 0.36 % ID/g; Drug uptake [24]: 2.55 % ID/g; Drug uptake [25]: 4.57 % ID/g; Drug uptake [26]: 3.6 % ID/g; Drug uptake [27]: 3.09 % ID/g; Drug uptake [28]: < 4 % ID/g; Drug uptake [29]: < 4 % ID/g; Drug uptake [30]: < 4 % ID/g; Drug uptake [31]: < 4 % ID/g; Drug uptake [32]: < 4 % ID/g; Drug uptake [33]: 91%
